Measured values reported in paper PMC9738107, “Targeting of the ELR+CXCL/CXCR1/2 Pathway Is a Relevant Strategy for the Treatment of Paediatric Medulloblastomas” (Cells, 2022).

Legend:
Daoy cells = assay: Spheroid invasion, 3D culture; type: cell-based, human; details: 1 µM, from day 2
Protocol: (§1) Figure 4 C29 reduces proliferation, migration, and invasion of naïve MB cells. (A) Proliferation of Daoy, ONS-76, HD-MB03, and D341Med wild-type cells after treatment with 1 μM C29 or the control (DMSO), n = 3. (B) Clonogenic assay on Daoy (n = 4), ONS-76 (n = 3) and HD -MB03 (n = 5) cells after treatment with control (DMSO) or C29 (1 μM or 2.5 μM). Scale = 500 μm. (C) Cell migration through the Boyden chamber of Daoy and ONS-76 cells specifically attracted by 200 ng/mL CXCL8. Results are expressed as percentage of control (DMSO) (n = 3). Scale = 1000 μm. (D) Spheroid invasion using 3D culture cell assays on Daoy (n = 4) and ONS-76 cells (n = 3) treated with control (DMSO) or C29 at a concentration of 1 μM on day 0, 1, and 2. Results are expressed as percentage of day 0, n = 4. Scale = 500 μm. Statistics were performed using Student t-test for 2 comparisons only or ANOVA test for multiple comparisons. * p < 0.05, ** p < 0.01, *** p < 0.001. […]
(§2) each month by using PlasmoTest Kit (#10L07‐MM, InvivoGen, Toulouse, France). Daoy and ONS‐76 belong to the Shh genetic subgroup, D341‐Med and HD‐MB03 to group 3. […]
(§3) (1, 2∙5, 5μM) for 48 hours. […]
(§4) 5000 cells were plated in 48 multi‐well plates coated with agarose 0∙8%. […] Images were recorded each day with the Evos XL Core Cell Imaging system (Thermo Fisher).

ONS-76 cells = assay: Spheroid invasion, 3D culture; type: cell-based, human; details: ONS-76, 1 µM, from day 7
Protocol: as §1, §2, §3, §4

[1] = test system: ERK and AKT phosphorylation in ONS-76 cells; assay: Immunoblotting of p-ERK/p-AKT; type: cell-based, human; details: ONS-76, 1 or 2.5 µM, 2 h or 24 h
Protocol: (§5) Figure 5 C29 inhibits signalling pathway that stimulates in cell proliferation and survival. (A–C). Daoy (A), HD-MB03 (B), and ONS-76 (C) cells were treated with C29 (1 or 2.5 μM) for 2 h (A–C) or 24 h (C), n = 3. The expression of p- ERK and p-AKT, relative to ERK and AKT, (respectively) was used to describe the relative activation of the pathways. ARD1 and HSP90 were used as loading controls. Statistics were performed using Student t-test for two comparisons only or ANOVA test for multiple comparisons. * p < 0.05, ** p < 0.01. […]
(§6) Protein extraction and immunoblotting
(§7) Cells were cultured to sub confluency and lysed in 60 mM Tris‐Cl pH 6∙8, 2% SDS, 10% glycerol, 5% β‐mercapto‐ethanol, 0∙01% bromophenol blue).
(§8) Lysates were sonicated for 25 seconds, and protein amount was determined by the Pierce™ BCA Protein Assay Kit assay (Thermo Fisher). Sample proteins were reduced by heating at 95 °C for 5 min. 30 μg of proteins were separated on 10% SDS‐polyacrylamide gels and transferred on PVDF membranes in Tris‐Glycine buffer (25 mM Tris, 192 mM glycine, pH 8∙3) + 20% ethanol (v:v). Membranes were blocked with 3% BSA, at room tem‐ perature for 1 h, then immunoblotted overnight with primary antibodies diluted in 3% BSA, at 4 °C. The following primary antibodies were used: AKT (CST, #9272S), phospho‐ […]
(§9) ARD1 (homemade polyclonal rabbit antibody). Membranes were incubated with HRP‐ conjugated secondary antibodies anti‐rabbit IgG 1/5000e (Promega), at room temperature, for 1h30. After washing, the Advansta WesternBright Quantum HRP substrate (Diagom‐ ics, Blagnac, France) was used as detection reagent.

[2] = test system: ERK phosphorylation in Daoy cells; assay: Immunoblotting of p-ERK/p-AKT; type: cell-based, human; details: 1 or 2.5 µM, 2 h
Protocol: as §5, §6, §7, §8, §9

[3] = test system: ERK phosphorylation in HD-MB03 cells; assay: Immunoblotting of p-ERK/p-AKT; type: cell-based, human; details: HD-MB03, 1 or 2.5 µM, 2 h
Protocol: as §5, §6, §7, §8, §9

[4] = test system: uveal melanoma cells (Mel202); set-up: method as in PMID 24676409; details: Mel202, low expression of CXCR1/2; cited from earlier work

Q: Which Spheroid invasion ability (Daoy cells) does the source give for O=C(Nc1cccc(Cl)c1)Nc1nc2ccc([N+](=O)[O-])cc2s1 [C29, 1-(3-chlorophenyl)-3-(6-nitrobenzo[d]thiazol-2-yl) urea] here?
A: Its Spheroid invasion ability is “affected the invasion ability”.

Q: What about the Spheroid invasion ability (ONS-76 cells) of the same compound?
A: The Spheroid invasion ability was “affected the invasion ability”.

Q: And the AKT phosphorylation [1]?
A: The AKT phosphorylation was “inhibited”.

Q: What about the ERK phosphorylation [1] of the same compound?
A: The ERK phosphorylation was “inhibited”.

Q: And the ERK phosphorylation [2]?
A: Its ERK phosphorylation is “inhibited ERK phosphorylation”.

Q: And the ERK phosphorylation [3]?
A: Its ERK phosphorylation is “inhibited ERK phosphorylation”.

Q: And the “Effect on proliferation and survival” value [4]?
A: Its value is “no effect”.
